Reference: US20180369186A1, “METHOD FOR MODULATING AUTOPHAGY AND APPLICATIONS THEREOF” (JAWAHARLAL NEHRU CENTRE FOR ADVANCED SCIENTIFIC RESEARCH, priority 2015, published 2018)

Columns and labels:
[1] = Rotarod test in MPTP mice; format: in vivo; details: 5 mg/kg
Description: All the behavioural experiments are done on 3-4 month old, male C57/B16 mice. Experimenters are blind to the drug injected animals. Experimenters handle mice used for behavioral experiments for 3 consecutive days prior to the training paradigm. Behavioral experiments are designed in an order of low to high stress activity for mice. Therefore, Open Field Test is conducted in forenoon while rotarod is performed in the afternoon.
Mice were habituated to the behaviour room for 15 minutes every day before start of experiments. The light intensity is maintained at 100 lux throughout the experiment. Mice are weighed every day before training or test to ensure their good health. Mice are randomly allocated into three treatment cohorts: placebo control, MPTP and 6-Bio. Data is plotted using GraphPad prism 5 software.
The rotarod instrument is custom made at the Mechanical workshop, National Centre of Biological Sciences, Bengaluru, India. The rotating rod (diameter 3.3 cm) is made of Delrin and is textured to enhance the grip of mice. The rod is fixed at a height of 30 cm from the cushioned platform where mice fell on to during training and test. The rod is partitioned into three areas of 9.3 cm distance between each partition using discs (40 cm diameter) made of Teflon. […] The entire trial is video recorded using a DSLR camera (Nikon D5100) and latencies are scored manually. […]

p62, MAP1LC3B-II = assay: p62 and MAP1LC3B immunoblotting in Atg5+/+ and Atg5−/− MEFs; format: cell-based, mouse; details: 5 μM, 24 h
Description: Western blotting is performed using standard methods. Immunoblotting in MEFs is carried out as described previously. Dilutions of primary antibodies used are as follows: Anti-p62 1:1000 (Progen Biotechnik, GP62-C), Anti-MAP1LC3B 1:3000 (Nevus Biologicals, NB100-2220) and Anti-GAPDH (Cell Signalling Technologies, 2118S). Secondary antibodies conjugated to HRP are used at 1:10000 dilution as follows: Anti-Guinea-Pig-HRP (Abeam, ab50210) and Anti-Rabbit-HRP (Calbiochem, 401393).

[2] = test system: lace plant (Aponogeton madagascariensis) cells; assay: Lace plant leaf MDC staining of punctate structures; format: cell-based
Description: Axenic lace plant cultures are grown in magenta boxes and prepared according to Gunawardena et al. Leaves in the window stage are removed from the corm and rinsed thoroughly with distilled water prior to being sectioned into 2 mm^2 pieces. For starvation treatments, window stage leaves are removed from the plant, placed in distilled water and kept in the dark overnight.
Leaf sections are stained with monodansylcadaverine (MDC; 300 μM) (Sigma, D4008) and simultaneously treated with autophagy modulators for 2 hours in the dark. (1 hour vacuum infiltration at 15 psi). Treatment times, along with stain and modulator applications are optimized using concentration gradients followed by microscopy. The optimized concentrations are 5 μM rapamycin (Enzo Life Sciences (BML A275-0005), 5 μM wortmannin (Santa Cruz Biotechnology, sc-3505), 1 μM concanamycin A (Santa Cruz Biotechnology, sc-202111), 50 μM Bay 11 (Sigma, B5556) and 50 μM ZPCK (Sigma, 860794).
Tissue sections are then rinsed and mounted in distilled water prior to being scanned using a Nikon Eclipse Ti confocal microscope (Nikon 40X/1.30, Plan Fluor, 405 nm excitation and 450/30 nm emission). Areoles in the early phases of PCD are scanned to avoid cellular debris. The mean number of puncta are quantified for each treatment group with a minimum of four independent experiments using NIS Elements Advanced Research software. Additionally, starvation treatment leaves are also exposed to 5 μM, wortmannin, 50 μM Bay11 and 50 μM ZPCK treatments and then qualitatively assessed via confocal microscopy.

[3] = test system: autophagy (degradation of firefly luciferase); assay: Dual luciferase assay to monitor autophagy in real time; format: cell-based, S. cerevisiae; details: 1 μM, 10 μM, 25 μM and 50 μM
Description: The S. cerevisiae shuttle vectors pRS306 (URA) and pRS305 (LEU) are used to clone the POT1 promoter and the Firefly and Renilla luciferase genes, respectively. The oleate responsive region of the POT1 promoter is amplified from yeast genomic DNA and along with the firefly and Renilla luciferase genes (firefly gene from pMY30 and Renilla gene from pRL-TK) is cloned into these vectors to obtain the constructs pPM3 and pPM5. These plasmid constructs are linearized using suitable restriction enzymes in the selection marker and transformed into wild type strains of S. cerevisiae and P. pastoris by standard transformation methods-Lithium acetate or PEG based transformation. […]
To validate the luciferase assay developed in the laboratory, it is compared to the conventional Pot1-GFP processing assay, Both pexophagy and general autophagy are measured by following the rates of degradation of firefly and Renilla activities (FIG. 1A).
Thus, a 3 standard deviation (SD) parameter is used as a criterion to obtain the hits from the primary screen. […] Both the inhibitors show a dose dependent inhibition in autophagy as determined using luciferase assay wherein inhibition by concentrations 1 μM, 10 μM, 25 μM and 50 μM of the inhibitors are assessed and inhibition is observed to increase as concentration increases from 1 μM to 50 μM. […]

Structure (SMILES) | latency to fall, Co versus MPTP ([1]; MPTP+Co, day 13) | latency to fall, Post versus MPTP ([1]; administered after 48 h MPTP) | MAP1LC3B-II levels in Atg5+/+ MEFs (p62, MAP1LC3B-II) | endogenous p62 levels in Atg5+/+ MEFs (p62, MAP1LC3B-II) | endogenous p62 levels in Atg5−/− MEFs (p62, MAP1LC3B-II) | mean number of punctate structures per cell (MDC) ([2]; 2 hours, 5 μM wortmannin, 50 μM Bay11, 1 μM concanamycin A, rapamycin, 50 μM ZPCK, control 0.99±0.12) | puncta in overnight starvation leaves ([2]; overnight starvation combined with 5 μM wortmannin, 50 μM Bay11 or 50 μM ZPCK) | effect on rates of degradation of firefly luciferase (inhibition of autophagy) [3]
O=C1Nc2cc(Br)ccc2/C1=C1/Nc2ccccc2/C1=N\O [6-Bio, (2′Z,3′E)-6-Bromoindirubin-3′-oxime] | increased | not protected | – | – | – | – | – | –
Cc1ccc(S(=O)(=O)/C=C/C#N)cc1 [Bay11, 3-[(4-methylphenyl)sulfonyl]-(2E)-propenenitrile] | – | – | reduces MAP1LC3B-II levels | significantly increases endogenous p62 levels | no significant effect | 0.28±0.07 | fewer puncta | dose dependent effect
